# Test results as given in PMC6272127, “Synthesis, Antiproliferative Activity and Molecular Properties Predictions of Galloyl Derivatives” (Molecules, 2015).
# Where two headings read alike, the source gives them in different places.
# Key:
# [1] = system: U251 (glioma, CNS); test: cells; conditions: for TGI: U251, total growth inhibition, 48 h
# Description: The GI50 values (growth inhibitory activity) (Table 1) refer to the drug concentration that produces a 50% reduction of cellular growth compared with the untreated control cells. The TGI (cytostatic activity) and LC50 (cytotoxic activity) values (Table 2) refer to the drug concentration required for total growth inhibition and killing 50% of the cells, respectively.
# The synthesized compounds were assessed in the following ten human tumor cell lines from various tissues kindly provide by the National Cancer Institute (Frederick, MD, USA): U251 (glioma, CNS), MCF-7 (breast), NCI-ADR/RES (breast expressing the multiple drug resistance phenotype), 786-0 (renal), NCI-H460 (lung, non-small cells), PC-3 (prostate), OVCAR-3 (ovarian), HT-29 (colon), K-562 (leukemia) and HaCaT (keratinocytes). Stock cultures were grown in media containing 5 mL of RPMI 1640 (Gibco BRL) supplemented with 5% fetal bovine serum. Gentamicin ([…]) was added to the experimental cultures. Cells in 96-well plates (100 µL cells/well) were exposed to sample concentrations in DMSO/RPMI (0.25, 2.5, 25, and 250 µg/mL) at 37 °C and 5% CO2 for 48 h. […] Next, cells were fixed with 50% trichloroacetic acid, and cell proliferation was determined by spectrophotometric quantification (540 nm) of cellular protein content employing the sulforhodamine B assay. Doxorubicin (0.025–25 µg/mL) was used as a positive control. Three measurements were obtained: first at time point zero (T0, at the beginning of incubation) and then 48 h post-incubation for both the compound-free (C) and tested (T) cells. Cell proliferation was determined using the equation 100 × [(T − T0)/C − T0]. A cytostatic effect was observed when T ≥ T0, while a cytocidal effect occurred when T < T0. The experiments were performed in triplicate.
# [2] = system: MCF-7 (breast); test: Anticancer assay in vitro (sulforhodamine B), MCF-7; type: cell-based; conditions: for GI50: MCF-7, 48 h, SRB
# Description: (§1) The experiments were performed in triplicate.
# [3] = system: OVCAR-3 (ovarian); test: Anticancer assay in vitro (sulforhodamine B), OVCAR-3; type: cell-based; conditions: for GI50: SRB; for TGI: OVCAR-3, total growth inhibition, 48 h
# Description: as §1
# [4] = system: HT-29 (colon); test: Anticancer assay in vitro (sulforhodamine B), HT-29; type: cell-based; conditions: for GI50: SRB; for TGI: HT-29, total growth inhibition, 48 h
# Description: as §1
# [5] = system: 786-0 (renal); test: cells; type: cell-based; conditions: for GI50 / CC50: 786-0, 48 h; for GI50: SRB; for TGI: 786-0, total growth inhibition, 48 h; for CC50: read-out: LC50
# Description: as §1
# [6] = system: K-562 (leukemia); test: cells; type: cell-based; conditions: for GI50: K-562, 48 h, SRB
# Description: as §1
# [7] = system: NCI-ADR/RES (breast expressing the multiple drug resistance phenotype); test: cells; type: cell-based; conditions: for GI50: SRB
# Description: as §1
# [8] = system: NCI-H460 (lung, non-small cells); test: cells; type: cell-based; conditions: for GI50: SRB; for TGI: NCI-H460, total growth inhibition, 48 h
# Description: as §1
# [9] = system: PC-3 (prostate); test: cells; type: cell-based; conditions: for GI50: PC-3, 48 h, SRB; for TGI: PC-3, total growth inhibition
# Description: as §1
# [10] = system: HaCaT (keratinocytes); test: Anticancer assay in vitro (sulforhodamine B), HaCaT; type: cell-based; conditions: 48 h; for GI50: SRB; for TGI: total growth inhibition
# Description: as §1
# [11] = system: ten human tumor cell lines; test: Anticancer assay in vitro (sulforhodamine B), statements over the panel of cell lines; type: cell-based
# Description: as §1
# [12] = K-562, total growth inhibition, 48 h
# [13] = Homo sapiens, NCI/ADR-RES, 48 h
# [14] = NCI/ADR-RES, total growth inhibition, 48 h
# [15] = MCF-7, total growth inhibition, 48 h
compound,measurement,setting,value
"COc1ccc(/C=N/NC(=O)c2cc(O)c(O)c(O)c2)cc1 [Compound 7, N'-(4-Methoxybenzylidene)galloyl hydrazide]",GI50,"[1]; Homo sapiens, U-251, 48 h",9140 nM
same,TGI,[1],64.22 µg/mL
same,GI50,"[2]; Homo sapiens, MCF7",15700 nM
same,GI50,"[3]; Homo sapiens, OVCAR-3, 48 h",5980 nM
same,GI50,"[4]; Homo sapiens, HT-29, 48 h",25100 nM
same,GI50,[5]; Homo sapiens,18800 nM
same,GI50,"[6]; Homo sapiens, K562",8930 nM
same,TGI,[6]; [12],41.76 µg/mL
same,GI50,[7]; [13],11300 nM
same,TGI,[7]; [14],66.56 µg/mL
same,GI50,"[8]; Homo sapiens, NCI-H460, 48 h",41000 nM
same,GI50,[9]; Homo sapiens,19600 nM
same,GI50,[10]; Homo sapiens,18100 nM
same,cytotoxic efficacy,[11]; OVCAR-3 and K-562 cell lines,did not demonstrate cytotoxic efficacy
"COC(=O)c1cc(O)c(O)c(O)c1 [Compound 2, Methyl gallate]",GI50,"[1]; Homo sapiens, U-251, 48 h",160 nM
same,CC50,"[1]; Homo sapiens, U-251, 48 h, read-out: LC50",29.2 µg/mL
same,TGI,[1],4.10 µg/mL
same,GI50,"[2]; Homo sapiens, MCF7",160 nM
same,TGI,[2]; [15],5.12 µg/mL
same,CC50,"[3]; Homo sapiens, OVCAR-3, 48 h, read-out: LC50",33.7 µg/mL
same,TGI,[3],1.59 µg/mL
same,TGI,[4],8.52 µg/mL
same,CC50,"[4]; Homo sapiens, HT-29, 48 h, read-out: LC50",30.6 µg/mL
same,GI50,"[4]; Homo sapiens, HT-29, 48 h",490 nM
same,TGI,[5],8.62 µg/mL
same,CC50,[5]; Homo sapiens,31.4 µg/mL
same,GI50,[5]; Homo sapiens,650 nM
same,GI50,"[6]; Homo sapiens, K562",310 nM
same,TGI,[6]; [12],5.67 µg/mL
same,CC50,"[7]; Homo sapiens, NCI/ADR-RES, 48 h, read-out: LC50",30.3 µg/mL
same,GI50,[7]; [13],120 nM
same,TGI,[7]; [14],3.62 µg/mL
same,CC50,"[8]; Homo sapiens, NCI-H460, 48 h, read-out: LC50",34.9 µg/mL
same,GI50,"[8]; Homo sapiens, NCI-H460, 48 h",130 nM
same,TGI,[8],7.97 µg/mL
same,GI50,[9]; Homo sapiens,570 nM
same,TGI,[9]; 48 h,13.10 µg/mL
same,GI50,[10]; Homo sapiens,260 nM
same,TGI,[10],16.74 µg/mL
same,TGI values over the cell lines tested,[11]; range over all human tumor cell lines,1590 to 16740 nM
"O=C(N/N=C/c1ccc(O)cc1)c1cc(O)c(O)c(O)c1 [Compound 8, N'-(4-Hydroxybenzylidene)galloyl hydrazide]",GI50,"[1]; Homo sapiens, U-251, 48 h",6600 nM
same,TGI,[1],26.07 µg/mL
same,GI50,"[3]; Homo sapiens, OVCAR-3, 48 h",1350 nM
same,GI50,[5]; Homo sapiens,26800 nM
same,GI50,"[6]; Homo sapiens, K562",9170 nM
same,GI50,"[8]; Homo sapiens, NCI-H460, 48 h",9380 nM
same,GI50,[10]; Homo sapiens,8720 nM
"COc1cccc2c1C(=O)c1c(O)c3c(c(O)c1C2=O)C[C@@](O)(C(=O)CO)C[C@@H]3O[C@H]1C[C@H](N)[C@H](O)[C@H](C)O1 [Dox, Doxorubicin, reference compound]",GI50,"[1]; Homo sapiens, U-251, 48 h",20 nM
same,TGI,[1],2.68 µg/mL
same,GI50,"[2]; Homo sapiens, MCF7",10 nM
same,TGI,[2]; [15],2.52 µg/mL
same,GI50,"[3]; Homo sapiens, OVCAR-3, 48 h",20 nM
same,TGI,[3],1.47 µg/mL
same,TGI,[4],26.03 µg/mL
same,GI50,"[4]; Homo sapiens, HT-29, 48 h",90 nM
same,TGI,[5],0.51 µg/mL
same,CC50,[5]; Homo sapiens,17.8 µg/mL
same,GI50,[5]; Homo sapiens,40 nM
same,CC50,"[6]; Homo sapiens, K562, 48 h, read-out: LC50",20.1 µg/mL
same,GI50,"[6]; Homo sapiens, K562",30 nM
same,TGI,[6]; [12],2.60 µg/mL
same,GI50,[7]; [13],200 nM
same,TGI,[7]; [14],22.42 µg/mL
same,GI50,"[8]; Homo sapiens, NCI-H460, 48 h",10 nM
same,TGI,[8],3.73 µg/mL
same,CC50,"[9]; Homo sapiens, 48 h, read-out: LC50",7.95 µg/mL
same,GI50,[9]; Homo sapiens,180 nM
same,TGI,[9]; 48 h,1.03 µg/mL
same,GI50,[10]; Homo sapiens,10 nM
same,TGI,[10],0.77 µg/mL
"Galloyl-2-methylthio-1,3,4-oxadiazole [Compound 10]",LC50,[1],(30.43) µg/mL
same,GI50,"[1]; U251, 48 h, SRB",5200 nM
same,TGI,[1],16.40 µg/mL
same,CC50,[2],20200 nM
same,LC50,[2],(20.24) µg/mL
same,GI50,[2],340 nM
same,TGI,"[2]; MCF-7, as printed in the text",3200 nM
same,TGI,[2]; [15],3.20 µg/mL
same,CC50,[3],17300 nM
same,LC50,[3],(17.34) µg/mL
same,TGI,[3],2.38 µg/mL
same,LC50,[4],(60.32) µg/mL
same,GI50,"[4]; HT-29, 48 h",2770 nM
same,TGI,[4],17.66 µg/mL
same,GI50,[5],9200 nM
same,TGI,[5],29.40 µg/mL
same,CC50,[6],20200 nM
same,LC50,[6],(20.20) µg/mL
same,GI50,[6],600 nM
same,TGI,"[6]; K-562, as printed in the text",3700 nM
same,TGI,[6]; [12],3.70 µg/mL
same,CC50,[7],19600 nM
same,LC50,[7],(19.65) µg/mL
same,TGI,[7]; NCI/ADR-RES,2330 nM
same,GI50,"[7]; NCI/ADR-RES, 48 h",170 nM
same,TGI,[7]; [14],2.33 µg/mL
same,LC50,[8],(65.78) µg/mL
same,GI50,"[8]; NCI-H460, 48 h",9440 nM
same,TGI,[8],29.52 µg/mL
same,LC50,[9],(69.30) µg/mL
same,GI50,[9],7430 nM
same,TGI,[9]; 48 h,28.45 µg/mL
same,GI50,[10],2500 nM
same,TGI,[10],18.00 µg/mL
